Source: patent publication US7541020B2, “Aminoalkyl glucosaminide phosphate compounds and their use as adjuvants and immunoeffectors” (priority 1997, dated 2009)
“And” between values parts separate entries of the source, which are not always exact repeats. Equal values may be shown once. Read-outs that look alike come from different tables or passages of the source.

Columns and labels:
influenza A/HK/68 [1] = test system: influenza A/HK/68; set-up: species or system ICR mice; details: mouse, in vivo
influenza A/HK/68 [2] = test system: influenza A/HK/68; set-up: species or system ICR mice; details: mouse, in vivo; remark: listed apart in the source
influenza A/HK/68 [3] = assay type: in vivo, ICR mice; details: mouse, in vivo
E.G7 (OVA) cells = details: s.c. 25 μg OVA in AGP preparation, spleen cells 21 days later
[4] = Fever response in rabbits (pyrogenicity); assay type: in vivo; details: 10 ug/kg; cumulative rise ≥1.5 degree in three rabbits is considered pyrogenic
Procedure: The AGP compounds were also evaluated for their tendency to induce a fever response in rabbits. Each compound was formulated in 10% (v/v) ethanol/water solution at 100 mg/ml, then diluted with D5W to the desired concentration. The material was injected at 3 ml/kg body weight into 3 rabbits. The rise in core temperature of the rabbits was recorded.

influenza A/HK/68 [5] = assay: Second intranasal influenza vaccine experiment with aqueous AGP and MPL formulations: vaginal, tracheal wash and serum titers, protection; assay type: in vivo, BABL/c mice
IL-1β = assay: Cytokine induction in human whole blood ex vivo culture: IL-1β (ELISA); assay type: cell-based; details: 4 hr
Procedure, shortened: (§1)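 Compounds in 10% EtOH-water added at 1:10 to human whole blood, 4 hr at 37° C with rotation; RPMI-treated controls. After PBS dilution and centrifugation, supernatant TNF-α and IL-1β measured by ELISA.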

TNF-α = assay: Cytokine induction in human whole blood ex vivo culture: TNF-α (ELISA); assay type: cell-based; details: 4 hr
Procedure, shortened: as §1

influenza A/HK/68 [6] = assay type: in vivo, BALB/c mice; details: mouse, in vivo
influenza A/HK/68 [7] = details: mouse, in vivo
[8] = test system: hepatitis B surface antigen (HBsAg); assay: Anti-HBsAg antibody titer with AGP-SE (ELISA plates coated with HBsAg or p72 peptide); details: sera day 28 post 2°, 25 μg AGP-SE
[9] = test system: hepatitis B surface antigen (HBsAg); assay: Serum anti-HBsAg antibody titers after intranasal HBsAg + AGP-AF (ELISA); assay type: in vivo, BALB/c mice; details: for Anti HBsAg Titer^−1 IgG1 / Anti HBsAg Titer^−1 IgG2a: K = 10^3
tetanus toxoid [10] = details: mouse, in vivo, sc
tetanus toxoid [11] = details: mouse, in vivo
[12] = test system: hepatitis B surface antigen (HBsAg); assay: Vaginal wash anti-HBsAg antibody after intranasal HBsAg + AGP-AF; assay type: in vivo, BALB/c mice; details: 10 days after the booster immunization; intranasal HBsAg + 10 μg AGP-AF
Text: Vaginal samples were collected 10 days after the booster immunization and assayed for anti-HBsAg antibody.

[13] = ELISA plates coated with p72 peptide
[14] = day 22 post 2°, HBsAg + 10 μg AGP-AF intranasally
[15] = serum, day 21 post 3°, intranasal HBsAg + 10 μg AGP-AF

Substance: 3-Hydroxy-(S)-2-[(R)-3-nonanoyloxytetradecanoylamino]propyl 2-Deoxy-4-O-phosphono-2-[(R)-3-nonanoyloxytetradecanoylamino]-3-O-[(R)-3-nonanoyloxytetradecanoyl]-β-D-glucopyranoside Triethylammonium Salt [B7]
- IgG Titer-1 post 1° (influenza A/HK/68 [1]): 3200
- IgG Titer-1 post 2° (influenza A/HK/68 [1]): >102,400
- Percent Survival post 1° (influenza A/HK/68 [1]): 60%
- Percent Survival post 2° (influenza A/HK/68 [1]): 60%
- Anti-influenza Titer^−1 Total IgG (influenza A/HK/68 [2]): 200
- Titer−1 IgG1 (influenza A/HK/68 [3]): 3200
- Titer−1 IgG2a (influenza A/HK/68 [3]): 100
- Titer−1 IgG2b (influenza A/HK/68 [3]): 1600
- Titer−1 Total IgG (influenza A/HK/68 [3]): 3200
- % Cytotoxicity (E.G7 (OVA) cells; E:T 12.5:1): 29%
- % Cytotoxicity (E.G7 (OVA) cells; E:T 25:1): 44%
- % Cytotoxicity (E.G7 (OVA) cells; E:T 50:1): 57%
- PYROGENICITY Total Rise ° C., 3 rabbits [4]: 4 °C

Substance: 3-O-deacylated monophosphoryl lipid A [MPL®, reference compound]
- mucosal adjuvant activity (in words) (influenza A/HK/68 [5]; administered intranasally with influenza vaccine, vaginal and tracheal washes): act as mucosal adjuvants causing the production of IgA at two mucosal sites

Substance: 4-Hydroxy-(S)-2-[(R)-3-decanoyloxytetradecanoyl]butyl 2-Deoxy-4-O-phosphono-2-[(R)-3-decanoyloxytetradecanoylamino]-3-O-[(R)-3-decanoyltetradecanoyl]-β-D-glucopyranoside Triethylammonium Salt [B10]
- IgG Titer-1 post 1° (influenza A/HK/68 [1]): 1600
- IgG Titer-1 post 2° (influenza A/HK/68 [1]): 25,600
- Percent Survival post 1° (influenza A/HK/68 [1]): 60%
- Percent Survival post 2° (influenza A/HK/68 [1]): 90%
- Anti-influenza Titer^−1 Total IgG (influenza A/HK/68 [2]): 1600
- Percent Survival (influenza A/HK/68 [2]): 40%
- IL-1β (IL-1β; Dosage 1000 ng/ml, Table 15): 17 pg/mL
- IL-1β (IL-1β; Dosage 5000 ng/ml, Table 15): 61 pg/mL
- IL-1β (IL-1β; Dosage 10,000 ng/ml, Table 15): 43 pg/mL
- % Cytotoxicity (E.G7 (OVA) cells; E:T 12.5:1): 38%
- % Cytotoxicity (E.G7 (OVA) cells; E:T 25:1): 56%
- % Cytotoxicity (E.G7 (OVA) cells; E:T 50:1): 65%
- TNF-α (TNF-α; Dosage 1000 ng/ml, Table 15): 73 pg/mL
- TNF-α (TNF-α; Dosage 5000 ng/ml, Table 15): 127 pg/mL
- TNF-α (TNF-α; Dosage 10,000 ng/ml, Table 15): 207 pg/mL
- PYROGENICITY Total Rise ° C., 3 rabbits [4]: 5.8 °C
- Anti-influenza Titer^−1 IgG1 (influenza A/HK/68 [6]): 400
- Anti-influenza Titer^−1 IgG2a (influenza A/HK/68 [6]): 400
- Anti-influenza Titer^−1 IgG2b (influenza A/HK/68 [6]): 400
- Anti-influenza Titer^−1 Total IgG (influenza A/HK/68 [6]): 400
- Percent Survival (influenza A/HK/68 [6]): 62.5%

Substance: 4-Hydroxy-(S)-3-[(R)-3-decanoyloxytetradecanoyl]butyl 2-Deoxy-4-O-phosphono-2-[(R)-3-decanoyloxytetradecanoylamino]-3-O-[(R)-3-decanoyltetradecanoyl]-β-D-glucopyranoside Triethylammonium Salt [B9]
- IgG Titer-1 post 1° (influenza A/HK/68 [1]): 6400
- IgG Titer-1 post 2° (influenza A/HK/68 [1]): 12,800
- Percent Survival post 1° (influenza A/HK/68 [1]): 80%
- Percent Survival post 2° (influenza A/HK/68 [1]): 50%
- Anti-influenza Titer^−1 Total IgG (influenza A/HK/68 [2]): 6400
- Percent Survival (influenza A/HK/68 [2]): 44%
- IL-1β (IL-1β; Dosage 1000 ng/ml, Table 15): 53 pg/mL
- IL-1β (IL-1β; Dosage 5000 ng/ml, Table 15): 84 pg/mL
- IL-1β (IL-1β; Dosage 10,000 ng/ml, Table 15): 96 pg/mL
- % Cytotoxicity (E.G7 (OVA) cells; E:T 12.5:1): 36%
- % Cytotoxicity (E.G7 (OVA) cells; E:T 25:1): 55%
- % Cytotoxicity (E.G7 (OVA) cells; E:T 50:1): 65%
- TNF-α (TNF-α; Dosage 1000 ng/ml, Table 15): 145 pg/mL
- TNF-α (TNF-α; Dosage 5000 ng/ml, Table 15): 247 pg/mL
- TNF-α (TNF-α; Dosage 10,000 ng/ml, Table 15): 449 pg/mL
- PYROGENICITY Total Rise ° C., 3 rabbits [4]: 3.1 °C
- Anti-influenza Titer^−1 IgG1 (influenza A/HK/68 [6]): 1600
- Anti-influenza Titer^−1 IgG2a (influenza A/HK/68 [6]): 3200
- Anti-influenza Titer^−1 IgG2b (influenza A/HK/68 [6]): 800
- Anti-influenza Titer^−1 Total IgG (influenza A/HK/68 [6]): 1600
- Percent Survival (influenza A/HK/68 [6]): 87.5%

Substance: 4-[(R)-3-Tetradecanoyloxytetradecanoylamino]butyl 2-Deoxy-4-O-phosphono-3-O-[(R)-3-tetradecanoyoxytetradecanoyl]-2-[(R)-3-tetradecanoyloxytetradecanoylamino])-β-D-glucopyranoside Triethylammonium Salt [B22]
- Percent Survival (influenza A/HK/68 [7]): 40%
- Titer−1 IgG1 (influenza A/HK/68 [7]): 100
- Titer−1 IgG2a (influenza A/HK/68 [7]): 3200
- Titer−1 IgG2b (influenza A/HK/68 [7]): 200
- Titer−1 Total IgG (influenza A/HK/68 [7]): 3200
- Anti-HBsAg Titer^−1 HBsAg IgG1 ([8]; ELISA plates coated with HBsAg): 1024K
- Anti-HBsAg Titer^−1 HBsAg IgG2a ([8]; ELISA plates coated with HBsAg): 1024K
- Anti-HBsAg Titer^−1 p72-Peptide IgG1 [8, 13]: 128K
- Anti-HBsAg Titer^−1 p72-Peptide IgG2a [8, 13]: 128K
- Anti HBsAg Titer^−1 IgA [9, 14]: 1,600
- Anti HBsAg Titer^−1 IgG1 [9, 14]: 256K
- Anti HBsAg Titer^−1 IgG2a [9, 14]: 64K
- Anti HBsAg Titer^−1 IgG1 [9, 15]: 500K
- Anti HBsAg Titer^−1 IgG2a [9, 15]: 500K
- Anti HBsAg Titer^−1 IgA [9, 15]: 12,800
- Anti-tetanus toxoid IgG1 T/C (tetanus toxoid [10]): 18.4
- Anti-tetanus toxoid IgG1 Titer (tetanus toxoid [10]): 27,400
- Anti-tetanus toxoid IgG2a T/C (tetanus toxoid [10]): 345.8
- Anti-tetanus toxoid IgG2a Titer (tetanus toxoid [10]): 5,187
- Anti-tetanus toxoid IgG2b T/C (tetanus toxoid [10]): 59.6
- Anti-tetanus toxoid IgG2b Titer (tetanus toxoid [10]): 3,160
- Anti-tetanus toxoid IgM T/C (tetanus toxoid [10]): 0.8
- Anti-tetanus toxoid IgM Titer (tetanus toxoid [10]): 440
- Anti-tetanus toxoid Total Ig T/C (tetanus toxoid [10]): 60.0
- Anti-tetanus toxoid Total Ig Titer (tetanus toxoid [10]): 19,050
- Anti-Tetanus Toxoid Titer^−1 Fecal Extract IgG (tetanus toxoid [11]): 25 and 50
- Anti-Tetanus Toxoid Titer^−1 Vaginal Wash IgG (tetanus toxoid [11]): 400 and 800
- Vaginal Wash Anti-HBsAg Titer^−1 IgA [12]: 800
- Vaginal Wash Anti-HBsAg Titer^−1 IgG [12]: 100

Substance: N-[(R)-3-Hexanoyloxytetradecanoyl]-O-[2-deoxy-4-O-phosphono-2-[(R)-3-hexanoyloxytetradecanoylamino]-3-O-[(R)-3-hexanoyloxytetradecanoyl]-α-D-glucopyranosyl]-L-serine Triethylammonium Salt [B34]
- Mucosal IgA Response TW (influenza A/HK/68 [5]; mouse, in vivo): <4.6
- Mucosal IgA Response VW (influenza A/HK/68 [5]; mouse, in vivo): <4.6
- Percent Protection (influenza A/HK/68 [5]; mouse, in vivo): 0%
- Serum IgG Titers (influenza A/HK/68 [5]; mouse, in vivo): 8.4
- PYROGENICITY Total Rise ° C., 3 rabbits [4]: 2.8 °C

Substance: N-[(R)-3-decanoyloxytetradecanoyl]-O-[2-deoxy-4-O-phosphono-2-[(R)-3-decanoyloxytetradecanoylamino]-3-O-[(R)-3-decanoyloxytetradecanoyl]-β-D-glucopyranosyl]-D-serine Triethylammonium Salt [B14]
- IgG Titer-1 post 1° (influenza A/HK/68 [1]): 800
- IgG Titer-1 post 2° (influenza A/HK/68 [1]): 51,200
- Percent Survival post 1° (influenza A/HK/68 [1]): 33%
- Percent Survival post 2° (influenza A/HK/68 [1]): 70%
- Anti-influenza Titer^−1 Total IgG (influenza A/HK/68 [2]): 6400
- Percent Survival (influenza A/HK/68 [2]): 44%
- Percent Survival (influenza A/HK/68 [3]): 30%
- Titer^−1 IgG1 (influenza A/HK/68 [3]): 1600
- Titer^−1 IgG2a (influenza A/HK/68 [3]): 100
- Titer^−1 IgG2b (influenza A/HK/68 [3]): 400
- Titer^−1 Total IgG (influenza A/HK/68 [3]): 800
- IL-1β (IL-1β; Dosage 500 ng/ml, Table 17): 19.9 pg/mL
- IL-1β (IL-1β; Dosage 1000 ng/ml, Table 16): 46 pg/mL
- IL-1β (IL-1β; Dosage 1000 ng/ml, Table 17): 10.0 pg/mL
- IL-1β (IL-1β; Dosage 5000 ng/ml, Table 16): 71 pg/mL
- IL-1β (IL-1β; Dosage 5000 ng/ml, Table 17): 19.0 pg/mL
- IL-1β (IL-1β; Dosage 10,000 ng/ml, Table 16): 91 pg/mL
- IL-1β (IL-1β; Dosage 10,000 ng/ml, Table 17): 24.6 pg/mL
- % Cytotoxicity (E.G7 (OVA) cells; E:T 12.5:1): 25%
- % Cytotoxicity (E.G7 (OVA) cells; E:T 25:1): 36%
- % Cytotoxicity (E.G7 (OVA) cells; E:T 50:1): 45%
- TNF-α (TNF-α; Dosage 500 ng/ml, Table 17): 49 pg/mL
- TNF-α (TNF-α; Dosage 1000 ng/ml, Table 16): 56 pg/mL
- TNF-α (TNF-α; Dosage 1000 ng/ml, Table 17): 51 pg/mL
- TNF-α (TNF-α; Dosage 5000 ng/ml, Table 16): 120 pg/mL
- TNF-α (TNF-α; Dosage 5000 ng/ml, Table 17): 87 pg/mL
- TNF-α (TNF-α; Dosage 10,000 ng/ml, Table 16): 249 pg/mL
- TNF-α (TNF-α; Dosage 10,000 ng/ml, Table 17): 114 pg/mL
- Anti-influenza Titer^−1 IgG1 (influenza A/HK/68 [6]): 6400
- Anti-influenza Titer^−1 IgG2a (influenza A/HK/68 [6]): 3200
- Anti-influenza Titer^−1 IgG2b (influenza A/HK/68 [6]): 6400
- Anti-influenza Titer^−1 Total IgG (influenza A/HK/68 [6]): 3200
- Percent Survival (influenza A/HK/68 [6]): 87.5%
